Laboratory results published in patent US6369110B1, “Substituted guanidine derivatives and process for producing the same” (Sumitomo Pharmaceuticals Company, priority 1998, dated 2002).
pIC50: −log10 of the molar value.

These molecules were tested against T1, Na+/H+ exchange transport system (Rattus norvegicus, UniProt P26431) (assay: Inhibitory effect on the Na+/H+ exchange transport system (in vitro), pH change in isolated ventricular myocytes under an acid load).
T1 construct: a pH change in isolated ventricular myocytes (rat) under an acid load; from tissue; host or cells: isolated rat ventricular myocytes
T1 sequence (P26431 whole entry): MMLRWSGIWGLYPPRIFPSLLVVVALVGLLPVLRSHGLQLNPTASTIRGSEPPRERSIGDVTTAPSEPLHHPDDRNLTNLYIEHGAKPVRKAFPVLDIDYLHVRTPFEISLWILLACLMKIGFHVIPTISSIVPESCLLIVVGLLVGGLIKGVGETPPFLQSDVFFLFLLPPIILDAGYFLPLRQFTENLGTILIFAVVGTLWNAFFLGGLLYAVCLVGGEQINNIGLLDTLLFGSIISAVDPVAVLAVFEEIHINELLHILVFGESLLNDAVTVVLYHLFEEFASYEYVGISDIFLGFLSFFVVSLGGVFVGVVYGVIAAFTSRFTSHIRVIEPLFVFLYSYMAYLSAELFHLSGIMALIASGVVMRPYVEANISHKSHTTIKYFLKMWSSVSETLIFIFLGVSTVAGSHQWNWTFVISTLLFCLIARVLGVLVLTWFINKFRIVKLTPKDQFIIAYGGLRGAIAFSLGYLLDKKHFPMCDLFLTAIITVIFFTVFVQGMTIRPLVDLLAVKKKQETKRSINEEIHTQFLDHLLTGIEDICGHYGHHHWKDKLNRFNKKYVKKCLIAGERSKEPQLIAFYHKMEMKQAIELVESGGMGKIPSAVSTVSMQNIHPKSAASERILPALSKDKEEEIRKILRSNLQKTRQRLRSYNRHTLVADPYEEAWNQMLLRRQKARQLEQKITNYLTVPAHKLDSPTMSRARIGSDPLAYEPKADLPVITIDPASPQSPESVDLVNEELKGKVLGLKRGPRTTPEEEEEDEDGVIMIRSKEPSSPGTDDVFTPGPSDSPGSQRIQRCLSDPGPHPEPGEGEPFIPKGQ
Assay type: cell-based
Procedure: Inhibitory Effect on the Na^+/H^+ Exchange Transport System (In Vitro)
A test was carried out according to the method of Iemori et al. (J. Hypertension, 8, 153(1990)). In detail, inhibitory effect on the Na^+/H^+ exchange transport system was evaluated by using as an indication a pH change in isolated ventricular myocytes (rat) under an acid load.

| Molecule | pIC50 |
| --- | --- |
| N-(aminoiminomethyl)-4-methylsulfonyl-6,7-dihydro-5H-benzocycloheptene-8-carboxamide Methanesulfonate [Example 15] | 7.52 |
| N-(aminoiminomethyl)-2-methylsulfonyl-6,7-dihydro-5H-benzocycloheptene-8-carboxamide Methanesulfonate [Example 13] | < 5.00 |
| N-(aminoiminomethyl)-7-methyl-6,7-dihydro-5H-benzocycloheptene-8-carboxamide Methanesulfonate [Example 10] | 8.00 |
| N-(aminoiminomethyl)-5-methoxy-3,4-dihydronaphthalene-2-carboxamide Methanesulfonate [Example 2] | 7.00 |
| N-(aminoiminomethyl)-1-(4-methylphenylsulfonyl)-2,3-dihydro-1H-benz[b]azepine-4-carboxamide Methanesulfonate [Example 4] | 5.48 |
| N-(aminoiminomethyl )-6,7-dihydro-5H-benzocycloheptene-8-carboxamide Methanesulfonate [Example 3] | 7.30 |
| CC1CC(C(=O)NC(=N)N)=Cc2ccccc2C1 (stereo not drawn) [Example 11, N-(aminoiminomethyl)-6-methyl-6.7-dihydro-5H-benzocycloheptene-8-carboxamide Methanesulfonate] | 6.68 |
| N-(aminoiminomethyl)-4,9-dimethyl-6,7-dihydro-5H-benzocycloheptene-8-carboxamide Methanesulfonate [Example 9] | 5.64 |
| N-(aminoiminomethyl)-2,3-dihydro-benz[b]oxepine-4-carboxamide Methanesulfonate [Example 6] | 7.15 |
| N-(aminoiminomethyl)-9-methyl-6,7-dihydro-5H-benzocycloheptene-8-carboxamide Methanesulfonate [Example 8] | 5.15 |
| N-(aminoiminomethyl)-4-methylthio-6,7-dihydro-5H-benzocycloheptene-8-carboxamide Methanesulfonate [Example 14] | 7.52 |
| N-(aminoiminomethyl)-5-methyl-6,7-dihydro-5H-benzocycloheptene-8-carboxamide Methanesulfonate [Example 7] | 7.30 |
| N-(aminoiminomethyl)-2,3-dihydro-1H-benz[b]azepine-4-carboxamide dimethane-sulfonate [Example 5] | 6.82 |
| N-(aminoiminomethyl)-2-methylthio-6,7-dihydro-5H-benzocycloheptene-8-carboxamide Methanesulfonate [Example 12] | 6.34 |
| N-(aminoiminomethyl)-3,4-dihydronaphthalene-2-carboxamide Methanesulfonate [Example 1] | 6.52 |
